Data as given in article PMC6418145 (Scientific Reports, 2019).

Key:
[1] = molecular target: T1, hM4Di (Homo sapiens, UniProt P08173, A203G/Y113C); experiment: FLIPR Ca2+ oscillation assay in primary rat neuronal cultures transduced with hM4Di; assay type: cell-based
T1 construct: expressed in transfected cells; host or cells: primary cortical neurons of embryonic (E18) Sprague-Dawley rats, AAV-transduced
T1 sequence (P08173 1-479 Y113C/A203G): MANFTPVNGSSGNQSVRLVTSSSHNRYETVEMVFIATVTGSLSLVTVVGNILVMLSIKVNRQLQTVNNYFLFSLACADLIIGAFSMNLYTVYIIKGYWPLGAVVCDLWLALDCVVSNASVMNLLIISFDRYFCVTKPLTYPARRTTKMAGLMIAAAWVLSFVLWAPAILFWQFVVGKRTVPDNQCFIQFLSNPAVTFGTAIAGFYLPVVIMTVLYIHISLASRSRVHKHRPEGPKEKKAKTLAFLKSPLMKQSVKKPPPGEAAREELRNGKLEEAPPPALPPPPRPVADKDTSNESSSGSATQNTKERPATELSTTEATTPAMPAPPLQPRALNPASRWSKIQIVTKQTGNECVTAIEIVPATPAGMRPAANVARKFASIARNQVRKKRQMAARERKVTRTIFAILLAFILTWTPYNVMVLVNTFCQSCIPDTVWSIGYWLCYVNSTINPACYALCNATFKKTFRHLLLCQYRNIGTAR
Experimental: Briefly, cortices were dissected from embryonic brains, meninges were removed, and cortices transferred into ice-cold dissociation buffer (2 mM kynurenic acid, 10 mM HEPES, 20 mM MgCl2 (Fluka, Germany) and 33.4 mM Glucose in Hank’s Balanced Salt Solution (HBSS), pH 7.4 (Gibco, Thermo Fischer Scientific, Massachusetts, USA). Cortices were then dissociated in 20 units/ml papain solution (5.5 mM L- Cysteine hydrochloride, 1.1 mM ethylenediamine tetra-acetic acid [EDTA], 0.067 mM 2-Mercaptoethanol in Minimum Essential Medium [MEM]) for 15 min at 37 °C. Cortices were washed twice by adding 20 ml plating medium (1:50 foetal calve serum, 1:100 penicillin/streptomycin and 1:100 GlutaMax in MEM) followed by cell filtration using a 70 µm cell strainer (Corning, model #352350, Merck, Germany) to obtain a single-cell suspension. Dissociated cells were re-suspended in serum-free Neurobasal medium with Glutamax and B27 supplement (Gibco) and plated on PDL-coated 96 MTPs (Corning #356640). Virus (ssAAV-1/2-hSyn1-hM4D[Gi]_mCherry-WPRE-hGHp[A]) transduction was performed immediately after plating. Cells were maintained at 37 °C (5% CO2 and 10% O2) in a humidified incubator. A half feed medium change was done on DIV8. Final assay conditions used for evaluating activity of compounds were 0.95 × 10^5 cells/cm^2, transduced with 10.000 multiplicity of infection and measured on DIV9.
Medium was removed and cells were incubated in assay buffer (HBSS, Gibco, 10 mM HEPES, pH 7.4) containing 4 µM Fluo-4AM (Thermo Fischer Scientific) and 0.1% Pluronic F-127 (Thermo Fischer Scientific #P3000MP) for 1 h at room temperature in the dark. Loading buffer was then replaced with assay buffer. After 10 min, assay plates were measured in the FLIPR tetra (Molecular Devices, California, USA) using green fluorescence filter settings (excitation 470–495 nm, emission 515–575 nm). Fluorescence signals were recorded at 1 s intervals (0.4 s exposure time). Compound addition was automated in a single addition protocol. Tested compounds (concentrations:0.3 nM–1 µM; retigabine at 30 µM) were added after recording a baseline response for 5 min followed by another 5 min for recording compound effects on Ca^2+ oscillations. Each compound dose was repeated on three individual plates in duplicates.
Time-series raw fluorescence traces recorded from the FLIPR assay were analysed by detecting Ca^2+ peaks based on a fixed amplitude threshold[19]. The change in oscillation frequency was determined by counting the number of peaks in a defined time interval (5 min) before and after addition of the tested compound and calculating the Ca^2+ oscillations frequency from their number. […] For visualisation, all data were transferred to GraphPad Prism 7 (Graphpad Software, Inc., CA, USA).

[2] = molecular target: human M4 muscarinic receptor (Homo sapiens, UniProt P08173); experiment: Potency at parent receptor of hM4Di; assay type: cell-based; conditions: data not shown
[3] = system: C57BL/6 J mice; experiment: 5-choice serial-reaction-time task (5-CSRTT), unspecific behavioural effects; assay type: in vivo
Experimental: Training was performed in 16 standard mouse Bussey-Saksida touchscreen chambers (model #80614, Campden Instruments Ltd., UK), previously described in detail. In short, each trapezoidal operant chamber was placed in a sound- and light- attenuating box individually equipped with a house light, a reward magazine with light, a liquid reward dispenser, a sound generator, a perforated stainless steel floor, and a touchscreen placed at the wide end of the chamber and covered permanently by a black acrylic glass 5-hole mask. The reward magazine, located opposite the touchscreen, was connected to a liquid dispenser delivering strawberry milk (Yazoo®). Infrared break-beam sensors located inside and on the front of the food magazine as well as on the touch-screen walls allowed the detection of reward delivery and the animal’s locomotor activity, respectively. Four individual chambers were connected to one computer for controlling the task flow using the graphical task design software ABET II Touch (model #89505, Campden Instruments Ltd., UK) and the WhiskerServer software (Cambridge University Technical Services Ltd., UK)[27].
Mice were habituated to the chambers for three consecutive 20-min sessions during which the house light and magazine light were permanently on. At the start of each session, 30 µl strawberry milk was delivered. Every 15 s after head entry into the magazine, an additional 30 µl strawberry milk was delivered. Head entry turned the magazine light off.
The 5-CSRTT training protocol, originally designed for rats[28], was similar as that previously described for mice[29]–[31]. The training comprised six stages with 30-min sessions initiated by the illumination of the house and magazine lights and delivery of 20 µl strawberry milk. Collection of the reward switched the magazine light off and started the first trial.
In the first stage, the middle window was permanently illuminated, which was turned off when touched, followed by reward delivery (20 µl) with illumination of the magazine light. Head entry switched off the magazine light. Mice performing 30 trials in a session continued to the next stage. Training sessions in stages 2–6 comprised a maximum of 120 trials. Collection of the reward initiated the inter-trial interval (ITI) followed by the illumination of one pseudo-randomly selected aperture for a fixed stimulus duration (SD). Any touch to the screen during the ITI was classified as a premature response which was not counted as a trial and terminated the current trial. Following stimulus detection, a nose poke to the corresponding aperture within a fixed time interval (limited hold; LH) was required for reward delivery. Premature responses made during the ITI, incorrect responses, and the omission of a response within the LH led to a timeout (TO, house light switched off for 4 s) instead of delivery of reward. Correct, incorrect and omitted responses defined the total number of trials. […] The criteria to pass the last stage and reach baseline performance were to complete >30 correct trials, with ≥80% accuracy and ≤30% omissions. Percentage accuracy was defined as the number of correct trials divided by the sum of correct and incorrect trials. Percentage omissions were calculated in terms of the number of completed trials. Premature responding was calculated as a percentage of completed trials. Perseveration was calculated as the number of additional responses made in the same aperture following a correct response. Additionally, the correct-response latency (time from stimulus presentation to correct response) and reward latency (time from correct response to reward collection) were measured across all trials.
Either one or up to three days before, as well as one day after the task challenge, mice were trained at baseline conditions to check for any unexpected changes in task performance (e.g. by long lasting drug- or challenge-induced effects). […]

[4] = molecular target: T2, α1A adrenoreceptor (Homo sapiens, UniProt P35348); experiment: Off-target radioligand binding; conditions: 10 μM compound
T2 construct: expressed in transfected cells; host or cells: HEK-293 or CHO

[5] = molecular target: T3, D1 dopamine receptor (Homo sapiens, UniProt P21728); experiment: Off-target radioligand binding; conditions: 10 μM compound
T3 construct: expressed in transfected cells; host or cells: HEK-293 or CHO

[6] = molecular target: T4, D2 dopamine receptor (Homo sapiens, UniProt P14416); experiment: Off-target radioligand binding; conditions: 10 μM compound
T4 construct: expressed in transfected cells; host or cells: HEK-293 or CHO

[7] = molecular target: T5, M1 muscarinic receptor (Homo sapiens, UniProt P11229); experiment: Off-target radioligand binding; conditions: 10 μM compound
T5 construct: expressed in transfected cells; host or cells: HEK-293 or CHO

[8] = molecular target: T6, M3 muscarinic receptor (Homo sapiens, UniProt P20309); experiment: Off-target radioligand binding; conditions: 10 μM compound
T6 construct: expressed in transfected cells; host or cells: HEK-293 or CHO

[9] = molecular target: T7, 5-HT2B serotonin receptor (Homo sapiens, UniProt P41595); experiment: Off-target radioligand binding
T7 construct: expressed in transfected cells; host or cells: HEK-293 or CHO

[10] = molecular target: COX1 (Homo sapiens, UniProt P23219); experiment: Off-target enzyme assay; assay type: biochemical; conditions: 10 μM compound, not shown
[11] = molecular target: COX2 (Homo sapiens, UniProt P35354); experiment: Off-target enzyme assay; assay type: biochemical; conditions: 10 μM compound, not shown
[12] = molecular target: Lck kinase (Homo sapiens, UniProt P06239); experiment: Off-target enzyme assay; assay type: biochemical; conditions: 10 μM compound, not shown
[13] = system: hM3Dq; parameters: method as in PMID 25587888; conditions: FLIPR assay; cited from earlier work
[14] = Pharmacokinetics in plasma, CSF and cortical brain tissue after i.p. injection; conditions: mice; for mean concentration in brain: cortical tissue
Experimental: Blood (approximately 100 µl) was collected from the vena facialis in anaesthetised animals, followed by CSF sampling (approximately 10 µl) from the cisterna magna under pentobarbital anaesthesia (1:25 in saline, 10 ml/kg, i.p., Narcoren, Boehringer Ingelheim, Germany). Subsequently, the brain was removed and its anterior third (including the medial prefrontal and anterior cingulate cortices) dissected and transferred into Precellys tubes cooled in liquid nitrogen. For plasma extraction, blood was transferred to EDTA coated tubes and centrifuged for 10 min at 10,000 rpm at 4 °C. Maximal plasma concentration (Cmax), time taken to reach maximal plasma concentration (Tmax) and mean residence time were assessed using liquid chromatography–mass spectrometry analysis executed on the HP1200 (Agilent, CA, USA) coupled to the API 6500 (AB Sciex, Germany) using BI00001052 (Boehringer Ingelheim) as internal standard. In short, 5 µl of plasma or CSF sample were mixed with 10 nl internal standard. 70 µl acetonitrile (ACN)/methanol (1:1) was added, kept at −20 °C for 15 min and centrifuged for 4 min at 4000 rpm at 4 °C. 30 µl of the supernatant was mixed with 170 µl 0.1% formic acid. Brain homogenization was executed by Precellys Evolution (Bertin) after adding ACN/methanol (1:1)/aq.dest. (3:1) to each brain sample with a volume corresponding to 4 parts of the brain weight, followed by centrifugation for 1 min at 4000 rpm at 4 °C. 5 µl of the supernatant was mixed with 10 nl of internal standard.

[15] = 15 min after i.p. 3.5 mg/kg CNO
[16] = 30 min after i.p. 3.5 mg/kg CNO
[17] = 60 min after i.p. 3.5 mg/kg CNO

T7 sequence (P41595 whole entry): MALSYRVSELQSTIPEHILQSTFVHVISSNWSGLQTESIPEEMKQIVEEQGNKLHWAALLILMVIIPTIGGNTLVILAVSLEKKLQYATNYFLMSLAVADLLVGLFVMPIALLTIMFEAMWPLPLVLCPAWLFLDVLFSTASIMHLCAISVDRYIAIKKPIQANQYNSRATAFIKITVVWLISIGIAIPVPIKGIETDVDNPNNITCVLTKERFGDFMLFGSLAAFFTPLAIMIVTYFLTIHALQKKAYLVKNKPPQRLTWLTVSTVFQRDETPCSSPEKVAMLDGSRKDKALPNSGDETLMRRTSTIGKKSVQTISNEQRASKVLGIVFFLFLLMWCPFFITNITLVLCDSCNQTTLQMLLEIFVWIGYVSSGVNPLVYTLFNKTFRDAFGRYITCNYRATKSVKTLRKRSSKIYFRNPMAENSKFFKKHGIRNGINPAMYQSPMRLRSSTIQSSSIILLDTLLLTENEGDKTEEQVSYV
T5 sequence (P11229 whole entry): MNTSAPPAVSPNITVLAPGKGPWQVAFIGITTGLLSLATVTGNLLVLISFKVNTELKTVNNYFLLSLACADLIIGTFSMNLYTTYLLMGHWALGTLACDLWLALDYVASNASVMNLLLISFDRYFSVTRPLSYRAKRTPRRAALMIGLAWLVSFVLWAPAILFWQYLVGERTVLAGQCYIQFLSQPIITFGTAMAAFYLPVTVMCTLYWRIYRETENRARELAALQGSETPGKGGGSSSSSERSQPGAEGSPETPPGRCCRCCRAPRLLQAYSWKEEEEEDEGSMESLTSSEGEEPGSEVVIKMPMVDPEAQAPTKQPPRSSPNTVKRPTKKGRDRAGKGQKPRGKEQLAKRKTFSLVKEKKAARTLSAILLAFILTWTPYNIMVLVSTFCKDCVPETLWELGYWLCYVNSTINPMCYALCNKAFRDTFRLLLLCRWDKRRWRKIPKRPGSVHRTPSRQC
T6 sequence (P20309 whole entry): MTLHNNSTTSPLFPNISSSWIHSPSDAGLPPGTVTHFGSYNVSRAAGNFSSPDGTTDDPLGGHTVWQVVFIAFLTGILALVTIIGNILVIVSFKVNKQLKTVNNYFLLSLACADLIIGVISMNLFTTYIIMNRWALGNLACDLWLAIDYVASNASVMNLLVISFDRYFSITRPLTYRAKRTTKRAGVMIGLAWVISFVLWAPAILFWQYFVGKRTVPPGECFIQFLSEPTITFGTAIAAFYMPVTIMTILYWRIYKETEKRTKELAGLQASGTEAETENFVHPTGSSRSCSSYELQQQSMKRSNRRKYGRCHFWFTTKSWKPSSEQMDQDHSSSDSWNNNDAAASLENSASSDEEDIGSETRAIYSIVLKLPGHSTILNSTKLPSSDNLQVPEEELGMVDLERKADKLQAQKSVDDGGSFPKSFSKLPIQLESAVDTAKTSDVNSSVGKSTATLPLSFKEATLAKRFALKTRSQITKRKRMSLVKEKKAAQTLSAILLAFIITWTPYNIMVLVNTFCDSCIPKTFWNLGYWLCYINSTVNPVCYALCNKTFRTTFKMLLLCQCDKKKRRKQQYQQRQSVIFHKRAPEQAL
COX1, sequence (P23219 24-599): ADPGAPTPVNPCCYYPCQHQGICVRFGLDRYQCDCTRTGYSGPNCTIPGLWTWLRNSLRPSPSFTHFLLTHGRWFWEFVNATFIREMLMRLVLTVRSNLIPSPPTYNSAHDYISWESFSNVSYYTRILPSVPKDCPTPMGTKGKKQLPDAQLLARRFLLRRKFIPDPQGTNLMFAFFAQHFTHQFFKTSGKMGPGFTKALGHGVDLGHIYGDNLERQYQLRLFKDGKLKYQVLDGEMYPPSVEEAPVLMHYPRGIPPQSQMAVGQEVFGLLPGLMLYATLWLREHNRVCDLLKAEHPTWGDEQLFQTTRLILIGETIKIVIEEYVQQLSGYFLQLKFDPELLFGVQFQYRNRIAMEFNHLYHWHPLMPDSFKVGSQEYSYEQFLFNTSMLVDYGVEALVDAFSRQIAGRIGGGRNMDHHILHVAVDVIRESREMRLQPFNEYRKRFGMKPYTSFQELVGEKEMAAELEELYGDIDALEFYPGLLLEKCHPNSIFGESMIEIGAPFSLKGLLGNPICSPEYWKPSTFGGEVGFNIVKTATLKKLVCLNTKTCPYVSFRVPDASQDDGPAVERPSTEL
human M4 muscarinic receptor, sequence (P08173 whole entry): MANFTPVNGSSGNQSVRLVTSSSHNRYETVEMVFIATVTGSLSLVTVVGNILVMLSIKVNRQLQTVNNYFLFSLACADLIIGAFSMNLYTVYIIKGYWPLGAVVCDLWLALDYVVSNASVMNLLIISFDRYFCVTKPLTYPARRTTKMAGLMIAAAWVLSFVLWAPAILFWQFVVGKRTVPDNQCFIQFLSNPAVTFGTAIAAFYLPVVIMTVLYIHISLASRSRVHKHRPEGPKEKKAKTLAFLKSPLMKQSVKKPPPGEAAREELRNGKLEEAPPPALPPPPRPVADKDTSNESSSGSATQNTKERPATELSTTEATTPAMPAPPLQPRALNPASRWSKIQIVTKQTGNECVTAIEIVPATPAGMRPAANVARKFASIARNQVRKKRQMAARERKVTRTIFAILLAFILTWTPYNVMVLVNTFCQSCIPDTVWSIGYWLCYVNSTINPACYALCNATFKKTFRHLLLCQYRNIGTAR
COX2, sequence (P35354 18-604): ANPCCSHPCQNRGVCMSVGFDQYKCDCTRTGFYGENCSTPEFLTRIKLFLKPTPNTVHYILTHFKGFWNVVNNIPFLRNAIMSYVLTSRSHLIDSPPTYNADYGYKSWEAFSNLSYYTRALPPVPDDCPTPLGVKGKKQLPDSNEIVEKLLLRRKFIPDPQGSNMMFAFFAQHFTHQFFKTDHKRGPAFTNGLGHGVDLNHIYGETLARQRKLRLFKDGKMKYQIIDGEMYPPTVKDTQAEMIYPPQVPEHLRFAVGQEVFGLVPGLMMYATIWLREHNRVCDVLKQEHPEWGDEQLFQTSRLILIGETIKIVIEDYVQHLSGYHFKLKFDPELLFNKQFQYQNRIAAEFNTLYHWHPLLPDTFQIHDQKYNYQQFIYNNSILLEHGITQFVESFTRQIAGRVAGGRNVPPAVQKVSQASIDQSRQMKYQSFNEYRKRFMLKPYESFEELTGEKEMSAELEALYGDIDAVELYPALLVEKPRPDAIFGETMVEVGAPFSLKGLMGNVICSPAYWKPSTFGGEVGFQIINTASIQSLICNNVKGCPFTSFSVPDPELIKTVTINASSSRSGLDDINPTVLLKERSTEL
Lck kinase, sequence (P06239 whole entry): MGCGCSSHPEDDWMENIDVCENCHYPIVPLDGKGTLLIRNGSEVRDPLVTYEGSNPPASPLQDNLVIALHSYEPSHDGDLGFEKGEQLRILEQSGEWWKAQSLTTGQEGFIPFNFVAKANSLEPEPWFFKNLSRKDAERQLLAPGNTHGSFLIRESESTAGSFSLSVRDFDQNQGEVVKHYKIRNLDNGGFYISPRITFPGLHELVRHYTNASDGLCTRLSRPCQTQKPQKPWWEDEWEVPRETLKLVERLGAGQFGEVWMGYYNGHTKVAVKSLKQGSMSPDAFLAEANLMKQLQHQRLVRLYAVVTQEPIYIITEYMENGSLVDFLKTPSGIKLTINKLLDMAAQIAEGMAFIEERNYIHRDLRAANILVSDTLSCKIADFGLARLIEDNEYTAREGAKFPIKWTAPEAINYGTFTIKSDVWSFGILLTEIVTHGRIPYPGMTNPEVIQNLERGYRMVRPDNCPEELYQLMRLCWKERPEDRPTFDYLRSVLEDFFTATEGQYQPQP
T4 sequence (P14416 1-414 isoform P14416-2): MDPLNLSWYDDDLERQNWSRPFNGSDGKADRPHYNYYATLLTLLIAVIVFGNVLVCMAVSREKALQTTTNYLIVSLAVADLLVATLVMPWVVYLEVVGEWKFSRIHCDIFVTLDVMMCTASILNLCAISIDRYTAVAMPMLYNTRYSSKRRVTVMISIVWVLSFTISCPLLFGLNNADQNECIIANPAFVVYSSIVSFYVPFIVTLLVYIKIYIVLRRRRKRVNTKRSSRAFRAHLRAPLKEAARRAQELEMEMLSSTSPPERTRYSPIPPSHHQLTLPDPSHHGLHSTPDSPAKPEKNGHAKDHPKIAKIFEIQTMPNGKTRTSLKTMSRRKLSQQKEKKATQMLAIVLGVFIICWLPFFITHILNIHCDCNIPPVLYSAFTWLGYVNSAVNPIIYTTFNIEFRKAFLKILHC
T2 sequence (P35348 whole entry): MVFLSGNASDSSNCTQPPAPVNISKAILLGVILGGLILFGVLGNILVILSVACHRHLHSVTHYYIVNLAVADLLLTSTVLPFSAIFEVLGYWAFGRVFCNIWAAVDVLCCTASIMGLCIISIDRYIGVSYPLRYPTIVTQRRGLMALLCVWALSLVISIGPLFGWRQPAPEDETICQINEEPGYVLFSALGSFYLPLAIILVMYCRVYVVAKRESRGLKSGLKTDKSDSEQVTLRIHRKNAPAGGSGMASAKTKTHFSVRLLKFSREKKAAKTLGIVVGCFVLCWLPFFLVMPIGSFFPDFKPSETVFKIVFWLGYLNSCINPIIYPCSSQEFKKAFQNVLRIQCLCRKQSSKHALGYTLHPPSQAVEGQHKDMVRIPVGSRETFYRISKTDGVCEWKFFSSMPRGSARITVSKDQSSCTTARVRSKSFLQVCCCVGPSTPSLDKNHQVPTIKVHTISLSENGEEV

## C[N+]1([O-])CCN(C2=Nc3cc(Cl)ccc3Nc3ccccc32)CC1 [CNO, clozapine-N-oxide]
[1]; ratio of EC50 values
  times less potent than CLZ at hM4Di: ~20 times
  times less potent than Cmpd-21 at hM4Di: approximately 2.7 times
[1]; reduction of Ca2+ oscillation frequency, hM4Di-transduced rat primary neurons, Hill fit, read-out: half maximal effective concentration (EC50) at hM4Di
  EC50: 8.1 nM
[2]
  EC50: 6300 nM
[3]; CNO 3.5 or 10 mg/kg i.p., 10 min before test, vs vehicle
  behavioural changes in 5-CSRTT parameters: did not produce any significant behavioural changes in most 5-CSRTT parameters
[3]; CNO highest dose (10 mg/kg) i.p.
  number of perseverative responses: not at the highest dose
[3]; CNO intermediate dose (3.5 mg/kg) i.p., p = 0.0142
  number of perseverative responses: modest increase
[4]
  competitive inhibition of ligand binding: over 50%
[5]
  competitive inhibition of ligand binding: over 50%
[6]
  competitive inhibition of ligand binding: over 50%
[7]
  competitive inhibition of ligand binding: over 50%
[8]
  competitive inhibition of ligand binding: over 50%
[9]; 10 μM compound
  competitive inhibition of ligand binding: over 50%
[9]; bound stated in discussion
  Ki: < 100 nM
[10]
  inhibition: < 20%
[11]
  inhibition: < 20%
[12]
  inhibition: < 20%
[13]
  EC50: 6 nM
[14]; 10 mg/kg CNO
  brain concentration by linear extrapolation: ≤ 70 nM
  free (CSF) level by linear extrapolation: ≤ 30 nM
[14]; 15 min after i.p. 1 mg/kg CLZ
  mean CNO concentration as % of the CLZ concentration in plasma: approximately 1.1%
[14]; [15]
  mean concentration in CSF: 11.2 nM
  mean concentration in brain: 23.8 nM
[14]; [16]
  mean concentration in CSF: 10.8 nM
  mean concentration in brain: 18.5 nM
[14]; [17]
  free level (CSF): ~4.05 nM
  mean concentration in brain: could not be detected
[14]; after i.p. 1 mg/kg CLZ, other than plasma at 15 min
  detection at all other time points and in the other sample types: no CNO was detectable
